Consider four molecules from patent US20050154031A1, “5-Ht2b receptor antagonists” (priority 2002, published 2005).

Molecules are shown by their SMILES. Bounds are passed on as bounds.

Test [1] addresses T1, cloned human 5-HT2C receptor (Homo sapiens, UniProt P28335).
T1 construct: purchased Euroscreen; host or cells: CHO-K1
T1 sequence (P28335 33-458): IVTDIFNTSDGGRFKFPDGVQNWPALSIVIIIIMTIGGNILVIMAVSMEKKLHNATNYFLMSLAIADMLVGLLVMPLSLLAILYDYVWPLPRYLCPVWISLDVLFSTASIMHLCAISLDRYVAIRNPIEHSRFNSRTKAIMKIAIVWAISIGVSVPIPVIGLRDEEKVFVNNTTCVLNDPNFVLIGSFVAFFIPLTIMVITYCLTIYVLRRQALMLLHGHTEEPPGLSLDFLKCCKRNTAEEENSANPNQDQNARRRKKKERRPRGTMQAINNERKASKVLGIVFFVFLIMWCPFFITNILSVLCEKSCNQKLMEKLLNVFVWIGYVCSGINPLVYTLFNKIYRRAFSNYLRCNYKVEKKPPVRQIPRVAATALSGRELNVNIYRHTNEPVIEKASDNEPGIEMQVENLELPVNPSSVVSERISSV
Kind of test: Human 5-HT2C receptor binding assay ([3H]mesulergine). The following applies: membranes of CHO-K1 cells expressing cloned human 5-HT2C receptor, [3H]mesulergine 1 nM; read-out: 5-HT2C pKi (converted). On the procedure: (§1) Human 5-HT2A and 5-HT2C Receptor Binding Assays
(§2) The binding affinity of ligands for human 5-HT2A and 5-HT2C receptors was determined using the following assay.
Membrane preparations from CHO-K1 cells expressing the cloned human 5-HT2C receptor were obtained (Euroscreen). The membranes were thawed rapidly and diluted in assay buffer containing Tris-HCl (50 mM, pH 7.7), ascorbic acid (0.1%) and pargyline (10 μM). The membranes were resuspended by homogenisation, prior to adding 6 μg of membranes to assay wells containing [^3H] mesulergine (1 nM), assay buffer (50 mM Tris at pH 7.7 and 0.1% ascorbic acid) containing pargyline (10 μM), and test compounds (1×10^−10 to 1×10^−4M). Non specific binding was determined in the presence of 100 μM mianserin. After 30 minutes incubation at 37° C., the assay mixture was filtered through a combination of GF-C and GF-B filters, pre-soaked in 1% bovine serum albumin, using a Brandel cell harvester, and were washed three times using ice cold Tris-HCl buffer (50 mM). Radioactivity retained on the filters was determined by liquid scintillation counting. For each test compound, the concentration that inhibited binding of [^3H]mesulergine by 50% was determined using curve fitting software (Prism). Kd values (concentration of mesulergine required to occupy 50% of the receptor binding sites at equlibrium) determined from saturation binding studies were then used to calculate inhibition dissociation constants (Ki) using the following equation: [formula]

Test [2] concerns the target T2, cloned human 5-HT2A receptor (Homo sapiens, UniProt P28223).
T2 construct: purchased Euroscreen; host or cells: CHO-K1
As to the kind of experiment: Human 5-HT2A receptor binding assay ([3H]ketanserin). Particulars: membranes of CHO-K1 cells expressing cloned human 5-HT2A receptor, [3H]ketanserin 1 nM; read-out: 5-HT2A pKi (converted). On the procedure:
as §1, §2
Membrane preparations from CHO-K1 cells expressing the cloned human 5-HT2A receptor were obtained (Euroscreen). The membranes were thawed rapidly and diluted in assay buffer containing Tris-HCl (50 mM, pH 7.7). The membranes were resuspended by homogenisation, prior to adding 15 μg of membranes to assay wells containing [^3H] ketanserin (1 nM), assay buffer (50 mM Tris at pH 7.4) containing pargyline (10 μM), and test compounds (1×10^−10 to 1×10^−4M). Non specific binding was determined in the presence of 100 μM mianserin. After 15 minutes incubation at 37° C., the assay mixture was filtered through a combination of GF-C and GF-B filters, pre-soaked in 0.05% Brij, using a Brandel cell harvester, and were washed three times using ice cold Tris-HCl buffer (50 mM). Radioactivity retained on the filters was determined by liquid scintillation counting. For each test compound, the concentration that inhibited binding of [^3H]ketanserin by 50% was determined using curve fitting software (Prism). Kd values (concentration of ketanserin required to occupy 50% of the receptor binding sites at equlibrium)determined from saturation binding studies were then used to calculate inhibition dissociation constants (Ki) using the following equation: [formula]

Test [3] deals with T3, human cloned 5-HT2B receptors (Homo sapiens, UniProt P41595).
T3 construct: expressed in transfected cells; host or cells: CHO-K1
Kind of test: Human cloned 5-HT2B receptor binding assay ([3H]LSD). Particulars: membranes of CHO-K1 cells expressing cloned 5-HT2B receptor, [3H]LSD 1 nM; read-out: 5-HT2B pKi (converted). As to the method: Human Cloned 5-HT2B Receptor Binding Assay
The binding affinity of the compounds for human cloned 5-HT2B receptors was determined using the following assay.
CHO-K1 cells expressing cloned 5-HT2B receptor were maintained in Ultra-CHO medium containing 400 μg/ml of G418, 100 U/ml penicillin, 100 μg/ml streptomycin, 2.5 μg/ml fungizone and 1% foetal bovine serum, in 95/5% O2/CO2 at 37° C. The cells were harvested using 0.25% trypsin and were centrifuged at 800 rpm for 8 minutes. The cells were homogenised in 50 mM HEPES buffer containing 1 mM disodium EDTA and 1 mM PMSF at pH 7.4, using a Dounce homogeniser (20 strokes). The homogenate was centrifuged at 2280 rpm (1000 g) and 4° C. for 10 minutes, after which the supernatant was removed by decanting. The pellet was re-homogenised as above, and the resulting supernatant removed and combined with that already obtained. The supernatant solution was then centrifuged at 18300 rpm (40000 g) for 10 minutes at 4° C. using a Sorvall centrifuge. The supernatant was removed, and the pellet was re-suspended in 50 mM buffer at pH 7.4 using a Ultra-turrax T25 Polytron, before centrifugation again at 40000 g as above. This wash procedure was repeated, after which the membrane preparation was stored at a concentration of 1 mg/ml at −80° C. until use.
The membranes were thawed rapidly and diluted in assay buffer containing Tris-HCl (50 mM, pH 7.4), ascorbic acid (0.1%) and calcium chloride (4 mM). The membranes were homogenised to resuspend them, prior to adding 10 or 15 μg of membranes to assay wells containing [^3H]LSD (1 nM), assay buffer (50 mM Tris, 4 mM calcium chloride and 0.1% ascorbic acid) containing pargyline (10 μM), and the test compounds (1×10^−10 to 1×10^−4 M). Non specific binding was determined in the presence of 100 μM 5-HT. After 30 minutes incubation at 37° C., the assay mixture was filtered through a combination of GF-C and GF-B filters, pre-soaked in 1% polyethyleneimine, using a Brandel cell harvester, and were washed three times using 50 mM Tris-HCl. Radioactivity retained on the filters was determined by liquid scintillation counting. For each test compound, the concentration that inhibited binding of [^3H)LSD by 50% was determined using curve fitting software (Prism). Kd values (concentration of LSD required to occupy 50% of the receptor binding sites at equilibrium) determined from saturation binding studies were then used to calculate inhibition dissociation constants (Ki) using the following equation: [formula]
This approach follows that set out in Kenakin, T. P. Pharmacologic analysis of drug-receptor interaction. Raven Press, New York, 2nd Edition, which is incorporated herein by reference.

Test [4] addresses T3, human cloned 5-HT2B receptors. As to the kind of experiment: Human cloned 5-HT2B cell-based functional assay (Fluo-4, block of 5-HT response). Particulars: CHO.K1 cells expressing cloned 5-HT2B receptor, inhibition of the 5-HT response. On the procedure:
Human Cloned […] Cell-Based Functional Assay The following describes an in vitro functional assay using human cloned 5-HT2B receptors to determine the ability of compounds to block the receptor. CHO.K1 cells expressing cloned 5-HT2B receptor were maintained In Ultra-CHO medium containing 400 μg/ml of G418, 100 U/ml penicillin, 100 μg/ml streptomycin, 2.5 μg/ml fungizone, in 95/5% O2/CO2 at 37° C. Ultra-CHO medium additionally supplemented with 1% foetal bovine serum was used when seeding the cells and removed after 5 hours. Cells were plated in Costar 96 well white, clear-bottomed plate at a density of 50,000 cells per well and incubated for at least 24 hours in 95/5% O2/CO2 at 37° C. before running the assay. Media was removed from the wells and 200 μl of 4 μM Fluo-4 AM added, this was incubated in a Wallace Victor 2V workstation at 37° C. for 30 minutes. The Fluo-4 AM was then removed from the wells, which were then washed twice with 200 μl of buffer (HBSS without calcium/magnesium/phenol red, 20 mM HEPES, 1 mM Ca^2+, 1 mM Mg^2+, 2.5 mM probenecid, pH to 7.4), 180 μl of buffer or test compound was added to the well and incubated for 30 minutes. The Victor 2V injectors were used to inject 20 μl of 5-HT after obtaining 10 0.1-second baseline readings at 535 nm, followed by 150 readings. All test compounds were aliquoted in 100% DMSO at 10 mM and diluted to 1 mM in 50% DMSO, subsequent dilutions were made using buffer. Buffer was also used to dilute the 5-HT. Data were analysed using Microsoft Excel and GraphPad Prism, with the latter used to produce sigmoidal dose-response curves for each compound. The compound concentration that inhibited the 5-HT response by 50% was taken (IC50−M), and the results are shown in Table 2, as pIC50, being the negative log (to the base 10) of the measured IC50 values.

T3 sequence (P41595 whole entry): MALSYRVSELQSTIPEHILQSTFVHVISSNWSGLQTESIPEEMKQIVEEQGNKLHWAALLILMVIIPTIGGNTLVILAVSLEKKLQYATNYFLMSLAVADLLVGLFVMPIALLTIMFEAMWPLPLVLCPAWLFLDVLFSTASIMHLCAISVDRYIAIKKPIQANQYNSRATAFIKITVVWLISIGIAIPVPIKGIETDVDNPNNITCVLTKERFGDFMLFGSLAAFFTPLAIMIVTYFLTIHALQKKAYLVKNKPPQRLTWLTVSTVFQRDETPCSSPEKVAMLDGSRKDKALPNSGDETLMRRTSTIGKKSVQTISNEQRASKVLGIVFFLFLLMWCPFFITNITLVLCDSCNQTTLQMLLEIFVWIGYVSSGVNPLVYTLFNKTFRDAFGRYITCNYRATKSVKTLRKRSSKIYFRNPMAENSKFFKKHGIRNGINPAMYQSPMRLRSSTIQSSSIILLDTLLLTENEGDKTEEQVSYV
T2 sequence (P28223 whole entry): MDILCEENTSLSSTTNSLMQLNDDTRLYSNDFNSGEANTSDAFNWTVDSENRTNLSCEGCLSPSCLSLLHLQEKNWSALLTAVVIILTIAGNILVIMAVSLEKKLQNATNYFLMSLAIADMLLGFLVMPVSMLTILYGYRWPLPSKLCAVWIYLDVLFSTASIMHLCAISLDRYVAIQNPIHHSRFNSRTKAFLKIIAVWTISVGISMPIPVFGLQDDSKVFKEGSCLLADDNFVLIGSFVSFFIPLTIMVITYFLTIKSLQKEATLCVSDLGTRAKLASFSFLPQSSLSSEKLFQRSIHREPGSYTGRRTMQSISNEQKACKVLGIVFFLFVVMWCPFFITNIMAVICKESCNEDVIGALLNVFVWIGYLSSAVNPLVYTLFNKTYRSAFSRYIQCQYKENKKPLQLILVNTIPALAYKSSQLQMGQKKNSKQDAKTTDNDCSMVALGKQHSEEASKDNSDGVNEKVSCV

By IC50 is commonly meant the concentration that gives 50% inhibition. A high value points to a need for much substance. Take `Cc1sc(N)nc1-c1cccc2ccccc12` [Compound 1, 2-amino-5-methyl-4-(naphth-1-yl)thiazole]: the Ki was above 1 µM in test [1], above 10 µM in test [2] and below 1 µM in test [3]. In addition, the IC50 in test [4] is below 1 µM.

As to `CC(C)c1sc(N)nc1-c1cccc2ccccc12` [Compound 2, 2-amino-5-isopropyl-4-(naphth-1-yl)thiazole], the Ki was above 1 µM in test [1], above 1 µM in test [2] and below 0.1 µM in test [3]. This molecule also gave an IC50 in test [4] below 0.1 µM.

For the molecule `Nc1nc(-c2cccc3ccccc23)cs1` [Compound 3, 2-amino-4-(naphth-1-yl)thiazole], the Ki in test [1] was above 1 µM; in test [2], above 1 µM; in test [3], below 1 µM. In test [4], the IC50 was below 1 µM.

On to `Nc1nc(-c2ccc3ccccc3c2)cs1` [Compound 4, 2-amino-4-(naphth-2-yl)thiazole], for which the values for the Ki in test [1], in test [2] and in test [3] were above 10 µM, above 10 µM and below 10 µM, respectively. Besides, in test [4], the IC50 is below 10 µM.
